According to patent publication US20250099517A1, “Use of Lactobacillus reuteri Y7 strain for prevention or treatment of ocular diseases” (Taipei Medical University, priority 2023, published 2025):

Legend:
[1] = tested on: blue light-induced retinal atrophy; assay: SD-OCT quantitative analysis of retina layers, blue light-induced macular disease model; assay type: in vivo, C57BL/6 mice; details: for RPE layer thickness compared with the BL group / ONL (outer nuclear layer) thickness compared with the BL group: Day 35, p<0.05
Description: The C57BL/6 mice, which weighed between 23 and 25 g, were divided into seven groups randomly. In each group, the six mice induced by blue light successfully were incorporated in experiments. The samples dissolved in deuterium-depleted water (DDW) were fed to mice through oral tubes once a day. The groups were named and introduced as follows: • (1) Solvent not classified group (NC): The mice were fed with 0.2 ml deuterium-depleted water (DDW) through tubes; • (2) Negative control group (Blue light (BL)): The mice were fed with 0.2 ml deuterium-depleted water (DDW) through tubes and exposed to blue light; • (3) Low-dosage Y7 probiotics group […]): The mice were fed with low-dosage Y7 probiotics (probiotic counts of 1.0×10^8 CFU/ml dissolved in 0.2 ml DDW per day) and exposed to blue light; • (4) High-dosage Y7 probiotics group […]): The mice were fed with high-dosage Y7 probiotics (probiotic counts of 1.0×10^9 CFU/ml dissolved in 0.2 ml DDW per day) and exposed to blue light; • (5) Positive control group (lutein (LU)): The mice were fed with lutein and exposed to blue light. The recommended human dosage of lutein is 30 mg. The mouse cage (48×25×20 cm) placed inside a stainless ventilated box was equipped with blue light boards as blue light sources around and above. In the experiment of animals exposed to blue light, six-week-old mice staying in the mouse cage were fed with drinking water as well as fodders and exposed to 400 Lux blue light illumination under the light-dark cycle of 12-hour light and 12-hour dark. The experiment was aimed at causing mice' late dry macular disease induced by chronic light injuries for simulating a human being's macular disease after long-term exposure to short-wavelength blue light from 3C products in daily life. The OCT image system (Phoenix Research Laboratories, San Ramon, CA) used in the experiment is constructed based on the principle of spectral-domain optical coherence tomography. In the system, the computed tomography is divided into five layers, that is, Layer 1: the distance from the Ganglion cell layer (GY7L) to the outer plexiform layer (OPL); Layer 2: outer nuclear layer (ONL); Layer 3: the distance between the inner segment (IS) and the outer segment (OS); Layer 4: the distance from IS/OS to RPE; Layer 5: the total retinal thickness from the nerve fiber layer (NFL) to the lower edge of the RPE layer. The five layers were taken for the quantitative analysis by InSight XL (Phoenix Research Laboratories, San Ramon, CA). SD-OCT was used in checking lesions after exposure to blue light such as retinal atrophy and edema on a retina structure. According to the quantitative SD-OCT analysis, changes in all layers of a retina during the experiment were clearly inspected and no lesion like atrophy and edema was detected in any group before the experiment, as show in FIG. 5. Atrophy at the outer nuclear layer (ONL) of mice in the BL group was observed on Day 35, as shown by the arrow in FIG. 3a.

total retinal thickness = assay: H&E sections of retinal tissues, total retinal thickness by ImageJ; assay type: in vivo, C57BL/6 mice; details: Day 35, p<0.05
Description: The C57BL/6 mice, which weighed between 23 and 25 g, were divided into seven groups randomly. In each group, the six mice induced by blue light successfully were incorporated in experiments. The samples dissolved in deuterium-depleted water (DDW) were fed to mice through oral tubes once a day. The groups were named and introduced as follows: • (1) Solvent not classified group (NC): The mice were fed with 0.2 ml deuterium-depleted water (DDW) through tubes; • (2) Negative control group (Blue light (BL)): The mice were fed with 0.2 ml deuterium-depleted water (DDW) through tubes and exposed to blue light; • (3) Low-dosage Y7 probiotics group […]): The mice were fed with low-dosage Y7 probiotics (probiotic counts of 1.0×10^8 CFU/ml dissolved in 0.2 ml DDW per day) and exposed to blue light; • (4) High-dosage Y7 probiotics group […]): The mice were fed with high-dosage Y7 probiotics (probiotic counts of 1.0×10^9 CFU/ml dissolved in 0.2 ml DDW per day) and exposed to blue light; • (5) Positive control group (lutein (LU)): The mice were fed with lutein and exposed to blue light. The recommended human dosage of lutein is 30 mg. The mouse cage (48×25×20 cm) placed inside a stainless ventilated box was equipped with blue light boards as blue light sources around and above. In the experiment of animals exposed to blue light, six-week-old mice staying in the mouse cage were fed with drinking water as well as fodders and exposed to 400 Lux blue light illumination under the light-dark cycle of 12-hour light and 12-hour dark. The experiment was aimed at causing mice' late dry macular disease induced by chronic light injuries for simulating a human being's macular disease after long-term exposure to short-wavelength blue light from 3C products in daily life. The eyes of a mouse sacrificed after the experiment on Day 35 were taken out for H&E stains. The section of a retinal tissue was checked for any change in each layer of a sacrificed mouse's retina and compared with experimental results of SD-OCT. The images for a fraction of retina below the pupil vertically and nearest to optic nerves were captured from a section through the 200× magnification, as shown in FIG. 6a.

| Compound | RPE layer thickness compared with the BL group ([1]; LU lutein group) | thickness of a retina after long-term exposure to blue light ([1]; lutein) | total retinal thickness compared with the BL group (total retinal thickness; LU lutein group) | total retinal thickness compared with the NC group (total retinal thickness; LU lutein group) | ONL (outer nuclear layer) thickness compared with the BL group ([1]; Y7H high-dosage group) | RPE layer thickness compared with the BL group ([1]; Y7H high-dosage group) | ONL (outer nuclear layer) thickness compared with the BL group ([1]; Y7L low-dosage group) | RPE layer thickness compared with the BL group ([1]; Y7L low-dosage group) | thickness of a retina after long-term exposure to blue light ([1]; high-dosage Y7 probiotics) | thickness of a retina after long-term exposure to blue light ([1]; low-dosage Y7 probiotics) | total retinal thickness compared with the BL group (total retinal thickness; Y7H high-dosage group) | total retinal thickness compared with the NC group (total retinal thickness; Y7H high-dosage group) | total retinal thickness compared with the BL group (total retinal thickness; Y7L low-dosage group) | total retinal thickness compared with the NC group (total retinal thickness; Y7L low-dosage group) |
| --- | --- | --- | --- | --- | --- | --- | --- | --- | --- | --- | --- | --- | --- | --- |
| CC1=C[C@H](O)CC(C)(C)[C@H]1/C=C/C(C)=C/C=C/C(C)=C/C=C/C=C(C)/C=C/C=C(C)/C=C/C1=C(C)C[C@@H](O)CC1(C)C [lutein, reference compound] | significantly thicker | effectively maintained | significant difference | decreased significantly |  |  |  |  |  |  |  |  |  |  |
| Lactobacillus reuteri Y7 [Y7 probiotics] |  |  |  |  | significant difference | significantly thicker | significant difference | significantly thicker | effectively maintained | effectively maintained | significant difference | decreased significantly | significant difference | decreased significantly |
